Assay results from paper PMC5427923, “A novel CCR2 antagonist inhibits atherogenesis in apoE deficient mice by achieving high receptor occupancy” (Scientific Reports, 2017).
“Also recorded” adds a separate entry of the source. Where two headings read alike, the source gives them in different places.

Key:
apoE−/− mice = assay: Body weight, cholesterol, liver toxicity markers and plasma cytokines in treated apoE−/− mice; type: in vivo, mouse
Experimental: (§1) To determine the effect of the CCR2 antagonist on atherosclerotic lesion development, mice were fed a Western type diet, containing 0.25% cholesterol and 15% cocoabutter (SDS, Sussex, UK) throughout the experiment starting two week before surgery. Carotid artery plaque formation was induced by perivascular collar placement as described previously[46] and from the time of surgery, the mice received daily intraperitoneal injections containing 15a (5 mg/kg/day) or vehicle control (n = 9–10 per group). During the experiment, total body weight and weight gain were measured. Serum total cholesterol levels were determined using an enzymatic colorimetric assay according to manufacturer’s protocol (Roche Diagnostics). Precipath (standardized serum; Boehringer Mannheim, Germany) was used as an internal standard. Plasma cytokine levels were measured by ELISA according to manufacturer’s protocol (BD Biosciences). Blood was collected weekly via tail cut. Total cell count and cellular differentiation patterns in blood were analyzed using an automated XT-2000iV veterinary hematology analyzer (Sysmex Europe GMBH, Norderstedt, Germany). After erythrocyte lysis, blood leukocyte suspensions were stained for surface markers, after which their expression was determined by FACS analysis (FACS Canto, BD Biosciences). After 4 weeks of lesion development, the animals were anaesthetized and blood was collected. After in situ perfusion through the left cardiac chamber, the carotid arteries and hearts were harvested.
Macrophage content of the lesions in carotid arteries and aortic roots was stained using a rat monoclonal MOMA2 antibody (1:1000, Serotec, Kidlington, Oxford, UK). Macrophage positive areas were analyzed using computer-assisted colour-gated analysis, and related to the total intimal surface area (Leica QWin). Liver cryosections of 10 µm thick were prepared and subsequently stained with hematoxylin-eosin to analyze liver morphology, which was assessed using a Leica DMRE microscope (Leica Ltd., Cambridge, England).
Total RNA was extracted from homogenized liver tissue with the guanidium thiocyanate-phenol-bromochloropropane extraction method. RNA concentration, purity and integrity were examined by nanodrop (Nanodrop® Technologies). RNA was reverse transcribed by M-MuLV reverse transcriptase (RevertAid, MBI Fermentas, Landsmeer, The Netherlands) and used for quantitative analysis of the mouse genes ALT, AST, apoH and GC with an ABI PRISM 7700 Taqman apparatus (Applied Biosystems). For qPCR primer pairs refer to Supplementary Table S1.

murine CCR2 (mCCR2) = target: T1, murine CCR2 (mCCR2) (Mus musculus, UniProt P51683); assay: [3H]INCB3344 association, dissociation and competition association (kinetic) assays on CHO-mCCR2 membranes; type: binding
T1 construct: expressed in transfected cells; host or cells: CHO cells, transient transfection (PEI) with pcDNA3.1+ plasmid; membrane preparation
T1 sequence (P51683 whole entry): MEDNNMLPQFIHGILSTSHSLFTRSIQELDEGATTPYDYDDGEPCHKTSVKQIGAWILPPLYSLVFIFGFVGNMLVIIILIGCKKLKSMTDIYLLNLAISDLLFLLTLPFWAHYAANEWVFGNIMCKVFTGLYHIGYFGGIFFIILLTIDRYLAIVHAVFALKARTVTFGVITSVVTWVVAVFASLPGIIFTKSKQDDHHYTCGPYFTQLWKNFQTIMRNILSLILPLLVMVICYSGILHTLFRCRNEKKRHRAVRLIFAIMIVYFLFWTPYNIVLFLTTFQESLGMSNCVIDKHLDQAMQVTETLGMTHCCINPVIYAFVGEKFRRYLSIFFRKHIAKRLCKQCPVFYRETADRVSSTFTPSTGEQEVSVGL
Experimental: Radioligand binding assays were performed in a 100 µL reaction volume containing 50 mM Tris-HCl buffer (pH 7.4), 5 mM MgCl2, 0.1% 3-[(3-cholamidopropyl)-dimethylammonio]-1-propanesulfonic acid (CHAPS), 5 nM [^3H]INCB3344 and 50 to 60 µg of membrane protein at 25 °C. Non-specific binding was determined with 10 μM of the cold ligand INCB3344. Displacement assays were carried out using 9 concentrations of competing ligand, ranging from 0.1 nM to 100 μM, for 120 min of incubation. The kinetic parameters of 15a were also determined at 25 °C using a competition association assay as previously described, [27]. For association and competition association experiments, CHO-mCCR2 membranes were added to the reaction volume at different time points, in the absence or presence of 30 nM of competing ligand. For dissociation experiments, CHO-mCCR2 membranes were first incubated with 5 nM [^3H]INCB3344 for 60 min. Dissociation was initiated by addition of 10 µM of INCB3344 at different time points. For all experiments, incubation was terminated by dilution with ice-cold 50 mM Tris-HCl buffer supplemented with 5 mM MgCl2 and 0.05% CHAPS. Separation of bound from free radioligand was performed by rapid filtration over a 96-well GF/B filter plate using a Perkin Elmer Filtermate-harvester (Perkin Elmer, Groningen, the Netherlands) in the case of displacement assays; or over GF/B filters using a Brandel harvester 24 (Brandel, Gaithersburg, MD, USA) for kinetic assays. Filter-bound radioactivity was determined by scintillation spectrometry after addition of Microscint scintillation cocktail (Perkin-Elmer, Groningen, the Netherlands). The P-E 2450 Microbeta2 plate counter (Perkin Elmer, Groningen, The Netherlands) was used for displacement assays, and the TRI Carb 2900 TR counter (Perkin Elmer, Groningen, The Netherlands) for kinetic assays.
All radioligand binding assays were analyzed using Prism 6.0 (GraphPad software, San Diego, CA, USA). All data shown represent means ± SEM of at least three independent experiments performed in duplicate. Ki values were calculated from IC50 values obtained by non-linear regression analysis of the displacement assays and by using the Cheng-Prusoff equation[47]. Dissociation rate constants k off were determined by fitting the dissociation data using an exponential decay model. Association rate constants k on were obtained by converting the apparent association rate constants k obs according to the equation k on = (k obs − k off)/[L], in which L is the radioligand concentration used for the experiments, k obs is the constant rate determined using exponential association analysis and k off represents the mean k off value obtained independently in the dissociation experiments. The kinetic profile of compound 15a was determined by calculation of its kinetic rate index (KRI) value. The KRI values were calculated according to the equation KRI = Bt1/Bt2, in which Bt represents the specific radioligand binding measured at t1 = 15 min and t2 = 210 min. In addition, the association and dissociation rates of 15a were obtained by nonlinear regression analysis of the competition association data using the equations described by Motulsky and Mahan[27]. […] In addition, the RT was calculated by obtaining the reciprocal of the k off. Data obtained from in vivo experiments are expressed as mean ± SEM. […] Non-Gaussian distributed data were analyzed using a two-tailed Mann-Whitney U test. […]

[1] = system: circulating CCR2+ monocytes; assay: Circulating blood cells (flow cytometry, hematology analyzer) in 15a treated apoE−/− mice; type: in vivo, mouse
Experimental: as §1

[2] = 4 weeks of treatment, 18 h after last injection

How did the body weight (apoE−/− mice; 5 mg/kg/day i.p., four weeks) turn out when `CC(C)[C@]1(C(=O)N2CCc3ccc(C(F)(F)F)cc3C2)CC[C@@H](N[C@@H]2CCc3cc(Br)ccc32)C1` [15a, ((1S,3R)-3-(((R)-5-bromo-2,3-dihydro-1H-inden-1-yl)amino)-1-isopropylcyclopentyl)(7-(trifluoromethyl)-3,4-dihydroisoquinolin-2(1H)-yl)methanone] was run?
Its body weight is “not significantly affected”.

And the body weight gain (apoE−/− mice; 5 mg/kg/day i.p., four weeks)?
Its body weight gain is “not affected”.

And the “plasma total cholesterol levels” value (apoE−/− mice; 5 mg/kg/day i.p., four weeks)?
Its value is “not significantly affected”.

And the “liver mRNA levels of AST” value (apoE−/− mice; P = 0.02)?
Its value is “somewhat decreased”.

What about the “liver mRNA expression of the toxicity markers ALT, apoH and GC” value (apoE−/− mice; mouse, in vivo) of the same compound?
The value was “did not affect”.

What about the “plasma CCL2 levels” value (apoE−/− mice; mouse, in vivo) of the same compound?
The value was “increased”.

And the “plasma IL-6 levels” value (apoE−/− mice; mouse, in vivo)?
Its value is “remained unaffected”.

And the liver morphology (apoE−/− mice; versus controls)?
The liver morphology was “similar”.

And the kon (murine CCR2 (mCCR2); mCCR2, 25 °C)?
The kon was 117000 M⁻¹ s⁻¹.

What about the “KRI (kinetic rate index)” value (murine CCR2 (mCCR2); mCCR2, 25 °C, KRI = Bt1/Bt2, t1 = 15 min, t2 = 210 min) of the same compound?
Its value is 1.6.

What about the Kd (murine CCR2 (mCCR2); mCCR2, 25 °C, read-out: K D (kinetic, k off/k on)) of the same compound?
The Kd was 7.4 ± 1.5 nM.

What about the koff (murine CCR2 (mCCR2); mCCR2, 25 °C, read-out: k off (converted)) of the same compound?
The koff was 0.00085 s⁻¹.

What about the koff (murine CCR2 (mCCR2); mCCR2, corresponding to 0.051 min^−1, read-out: k off (as set for the simulations) (converted)) of the same compound?
Its koff is 0.00085 s⁻¹.

And the “number of circulating CCR2+ monocytes” value ([1]; 5 mg/kg/day i.p., 4 weeks, 18 hour after the last injection, controls 14.9 ± 3.2)?
The value was 4.5 ± 1.0 *10^3 cells/mL.

What about the “percentage of circulating CCR2+ monocytes (CD11b+Ly6Glow cells)” value ([1]; 5 mg/kg/day i.p., two weeks of treatment, 2 hours after injection, controls 8.7 ± 1.2%) of the same compound?
Its value is 1.8 ± 0.2%.

And the “increase in the amount of CD11b+Ly6ClowCX3CR1+ monocytes” value [1, 2]?
Its value is 1.5 fold.

And the “ratio of patrolling CD11b+Ly6ClowCX3CR1+ versus inflammatory CD11b+Ly6ChighCCR2+ monocytes in blood” value [1, 2]?
Its value is “increased”.

And the “reduction in circulating CCR2+ monocyte numbers” value ([1]; at 18 hours after treatment)?
The value was over 60%.

What about the “circulating total white blood cell (WBCs) count” value ([1]; at the time of sacrifice) of the same compound?
The value was “No differences”.

What about the total lymphocyte numbers ([1]; at the time of sacrifice) of the same compound?
Its total lymphocyte numbers is “No differences; also recorded: remained unaffected”.

And the total neutrophil numbers ([1]; at the time of sacrifice)?
The total neutrophil numbers was “No differences; also recorded: remained unaffected”.

What about the “total number of (circulating) monocytes” value ([1]; at the time of sacrifice) of the same compound?
The value was “significantly reduced”.

What about the “bone marrow monocyte subpopulations” value ([1]; data not shown) of the same compound?
The value was “did not observe any effects”.

What about the “number of neutrophils, CD19+ B cells, CD4+ or CD8+ T cells in blood or spleen” value ([1]; flow cytometry, 18 hour after the last injection, data not shown) of the same compound?
The value was “did not affect”.

What about the “splenic or circulating Tregs” value ([1]; flow cytometry, data not shown) of the same compound?
The value was “nor did we detect any effects”.

What about the “percentage of circulating CCR5+ monocytes” value ([1]; treated and untreated mice) of the same compound?
Its value is “did not observe any change”.
